Biological target: HPK1 (Homo sapiens, UniProt Q92918)
Assay: HPK1 Kinase Binding Assay
Settings: LanthaScreen tracer 222 binding, active HPK1, one hour incubation at 25° C.
Experimental: A stock solution of 1 mM test compound was prepared in DMSO. The compound plate was prepared by 3-fold and 11-point serial dilutions. 0.1 μL of the compound in DMSO was transferred from the compound plate to the white 384 well polystyrene plates. The assay buffer contained 50 mM HEPES, pH 7.5, 0.01% Tween-20, 5 mM MgCl2, 0.01% BSA, and 5 mM DTT. 5 μl of 4 nM active HPK1 (SignalChem M23-11G) prepared in the buffer was added to the plate. The enzyme concentration given was based on the given stock concentration reported by the vender. 5 μl of 18 nM tracer 222 (ThermoFisher PV6121) and 4 nM LanthaScreen Eu-Anti GST antibody (ThermoFisher PV5595) were added. After one hour incubation at 25° C., the plates were read on a PHERAstar FS plate reader (BMG Labtech). Ki values were determined.

SMILES	Ki
CN1CCN(C(=O)c2ccc(-c3n[nH]c4ccc(-c5ccccc5F)nc34)cc2)CC1 [Example 56, (4-(5-(2-Fluorophenyl)-1H-pyrazolo[4,3-b]pyridin-3-yl)phenyl)(4-methylpiperazin-1-yl)methanone]	500 to 10000 nM
CS(=O)(=O)N1CCC(n2cc(-c3n[nH]c4ccc(-c5ccccc5F)nc34)cn2)CC1 [Example 59, 5-(2-Fluorophenyl)-3-(1-(1-(methylsulfonyl)piperidin-4-yl)-1H-pyrazol-4-yl)-1H-pyrazolo[4,3-b]pyridine]	500 to 10000 nM
CN1CCN(c2ccc(-c3n[nH]c4ccc(-c5cccc(N(C)C)c5)nc34)cc2)CC1 [Example 18, N,N-Dimethyl-3-(3-(4-(4-methylpiperazin-1-yl)phenyl)-1H-pyrazolo[4,3-b]pyridin-5-yl)aniline]	500 to 10000 nM
CN1CCN(c2ccc(-c3n[nH]c4ccc(-c5cccc6c5CCC6NCCO)nc34)cc2)CC1 (centres unmarked) [Example 49, 2-(4-(3-(4-(4-Methylpiperazin-1-yl)phenyl)-1H-pyrazolo[4,3-b]pyridin-5-yl)-2,3-dihydro-1H-inden-1-ylamino)ethanol]	≤ 100 nM
CN1CCN(c2ccc(-c3n[nH]c4ccc(-c5ccc(=O)n(C)c5)nc34)cc2)CC1 [Example 30, 1-Methyl-5-(3-(4-(4-methylpiperazin-1-yl)phenyl)-1H-pyrazolo[4,3-b]pyridin-5-yl)pyridin-2(1H)-one]	500 to 10000 nM
CC(=O)Nc1ccccc1-c1ccc2[nH]nc(-c3ccc(N4CCN(C)CC4)cc3)c2n1 [Example 21, N-(2-(3-(4-(4-Methylpiperazin-1-yl)phenyl)-1H-pyrazolo[4,3-b]pyridin-5-yl)phenyl)acetamide]	500 to 10000 nM
O=C(Nc1ccccc1)c1ccc(-c2n[nH]c3ccc(-c4ccccc4F)nc23)cc1 [Example 57, 4-(5-(2-Fluorophenyl)-1H-pyrazolo[4,3-b]pyridin-3-yl)-N-phenylbenzamide]	500 to 10000 nM
Fc1ccccc1-c1ccc2[nH]nc(-c3ccncc3)c2n1 [Example 52, 5-(2-Fluorophenyl)-3-(pyridin-4-yl)-1H-pyrazolo[4,3-b]pyridine]	500 to 10000 nM
Cn1cc(-c2n[nH]c3ccc(-c4ccccc4F)nc23)cn1 [Example 54]	100 to 500 nM
COC(=O)c1ccccc1-c1ccc2[nH]nc(-c3ccc(N4CCN(C)CC4)cc3)c2n1 [Example 20, Methyl 2-(3-(4-(4-methylpiperazin-1-yl)phenyl)-1H-pyrazolo[4,3-b]pyridin-5-yl)benzoate]	500 to 10000 nM
Fc1ccccc1-c1ccc2[nH]nc(-c3ccccc3)c2n1 [Example 51, 5-(2-Fluorophenyl)-3-phenyl-1H-pyrazolo[4,3-b]pyridine]	500 to 10000 nM
CC(=O)N1CCC(n2cc(-c3n[nH]c4ccc(-c5ccccc5F)nc34)cn2)CC1 [Example 60, 1-(4-(4-(5-(2-Fluorophenyl)-1H-pyrazolo[4,3-b]pyridin-3-yl)-1H-pyrazol-1-yl)piperidin-1-yl)ethanone]	500 to 10000 nM
CN1CCN(c2ccc(-c3n[nH]c4ccc(-c5ccccc5)nc34)cc2)CC1 [Example 1, 3-(4-(4-Methylpiperazin-1-yl)phenyl)-5-phenyl-1H-pyrazolo[4,3-b]pyridine]	100 to 500 nM

Results, then the compound that gave them:

Ki	SMILES
100 to 500 nM	Fc1ccccc1-c1ccc2[nH]nc(-c3cnn(C4CCNCC4)c3)c2n1 [Example 58, 5-(2-Fluorophenyl)-3-(1-(piperidin-4-yl)-1H-pyrazol-4-yl)-1H-pyrazolo[4,3-b]pyridine]
100 to 500 nM	CNC(=O)c1ccc(-c2n[nH]c3ccc(-c4ccccc4F)nc23)cc1 [Example 53, 4-(5-(2-Fluorophenyl)-1H-pyrazolo[4,3-b]pyridin-3-yl)-N-methylbenzamide]
100 to 500 nM	CN1CCN(c2ccc(-c3n[nH]c4ccc(-c5ccncc5)nc34)cc2)CC1 [Example 25, 3-(4-(4-Methylpiperazin-1-yl)phenyl)-5-(pyridin-4-yl)-1H-pyrazolo[4,3-b]pyridine]
100 to 500 nM	CN1CCN(c2ccc(-c3n[nH]c4ccc(-c5ccccc5-c5ccccc5)nc34)cc2)CC1 [Example 22, 5-(Biphenyl-2-yl)-3-(4-(4-methylpiperazin-1-yl)phenyl)-1H-pyrazolo[4,3-b]pyridine]
100 to 500 nM	CN1CCN(c2ccc(-c3n[nH]c4ccc(-c5cccc6c5OCCO6)nc34)cc2)CC1 [Example 16, 5-(2,3-Dihydrobenzo[b][1,4]dioxin-5-yl)-3-(4-(4-methylpiperazin-1-yl)phenyl)-1H-pyrazolo[4,3-b]pyridine]
100 to 500 nM	CN1CCN(c2ccc(-c3n[nH]c4ccc(-c5cccc6c5ccn6C)nc34)cc2)CC1 [Example 39, 5-(1-Methyl-1H-indol-4-yl)-3-(4-(4-methylpiperazin-1-yl)phenyl)-1H-pyrazolo[4,3-b]pyridine]
100 to 500 nM	CN1CCN(c2ccc(-c3n[nH]c4ccc(-c5cccc6c5CC(=O)N6)nc34)cc2)CC1 [Example 38, 4-(3-(4-(4-Methylpiperazin-1-yl)phenyl)-1H-pyrazolo[4,3-b]pyridin-5-yl)indolin-2-one]
100 to 500 nM	CN1CCN(c2ccc(-c3n[nH]c4ccc(-c5cccc6ncccc56)nc34)cc2)CC1 [Example 36, 5-(3-(4-(4-Methylpiperazin-1-yl)phenyl)-1H-pyrazolo[4,3-b]pyridin-5-yl)quinoline]
100 to 500 nM	COc1ccccc1-c1ccc2[nH]nc(-c3ccc(N4CCN(C)CC4)cc3)c2n1 [Example 2]
100 to 500 nM	CN1CCN(c2ccc(-c3n[nH]c4ccc(-c5ccccc5O)nc34)cc2)CC1 [Example 14, 2-(3-(4-(4-Methylpiperazin-1-yl)phenyl)-1H-pyrazolo[4,3-b]pyridin-5-yl)phenol]
100 to 500 nM	CCc1cn2cccc(-c3ccc4[nH]nc(-c5ccc(N6CCN(C)CC6)cc5)c4n3)c2n1 [Example 45, 5-(2-Ethylimidazo[1,2-a]pyridin-8-yl)-3-(4-(4-methylpiperazin-1-yl)phenyl)-1H-pyrazolo[4,3-b]pyridine]
100 to 500 nM	CNC(=O)c1cccc(-c2ccc3[nH]nc(-c4ccc(N5CCN(C)CC5)cc4)c3n2)c1 [Example 17, N-Methyl-3-(3-(4-(4-methylpiperazin-1-yl)phenyl)-1H-pyrazolo[4,3-b]pyridin-5-yl)benzamide]
100 to 500 nM	CN1CCN(c2ccc(-c3n[nH]c4ccc(-c5cccc6c5OCC6)nc34)cc2)CC1 [Example 15, 5-(2,3-Dihydrobenzofuran-7-yl)-3-(4-(4-methylpiperazin-1-yl)phenyl)-1H-pyrazolo[4,3-b]pyridine]
